target: human recombinant TAK1-TAB1 Kinase (TAK1 (1-303) and TAB1 (437-end)) (Homo sapiens (Human), UniProt O43318); assay: TAK1 biochemical ADP-Glo kinase assay; settings: 10 μM ATP, MBP substrate; read-out: TAK1 Mean IC50 (nM) @ 10 μM ATP
Experimental: The usefulness of the example compounds of the invention as TAK1 inhibitors was evaluated in a biochemical ADP-Glo kinase assay. Assay kits from Promega Corporation V4089 were used according to manufacturer's instructions and adapted as outlined here. ADP-Glo Kinase Assay kit contains ADP-Glo Reagent, Kinase Detection Reagent, kinase detection buffer, ATP, and ADP. The Kinase Enzyme Systems include human recombinant TAK1-TAB1 Kinase (TAK1 (1-303) and TAB1 (437-end)), Native Swine Myelin Basic Protein (MBP) substrate, 5×kinase reaction buffer, and DTT.
Test compounds were prepared in 1:5 serial dilutions at 8 concentrations in DMSO from 10 mM stock solutions. An additional 20-fold dilution in 1× kinase reaction buffer (see below) was performed, yielding a final dilution series in kinase buffer with 5% DMSO (final concentration in assay from 20 μM to 0.26 nM, 1% DMSO). As controls, Takinib was prepared as positive control (3 μM final in assay), and DMSO without inhibitor served as negative control, at a final assay concentration of DMSO of 1%.
One μl of compound solution in 5% DMSO was added to each well in a 384 well microtiter plate (OptiPlate #6007290). Two μl TAK1-TAB1 (7.5 ng/μl) in lxkinase reaction buffer ([…] Tris base pH 7.5, 20 mM MgCl2, 50 μM DTT, 0.1 mg/ml BSA) was added and pre-incubated 10 min before adding 2 μl of a mixture of MBP substrate and ATP (0.25 μg/μL MBP/25 μM ATP or 0.25 μg/μL MBP/2.5 mM ATP) in 1× kinase reaction buffer (as above). The plate was subsequently incubated at room temperature for 1 hour. Then 5 μl ADP-Glo™ reagent from ADP-Glo™ kit (as above) was added and incubated for 40 min to stop the reaction and consume remaining ATP. Ten μl kinase detection substrate (dissolved in kinase detection buffer, both from ADP-Glo™ kit as above) was then added to convert ADP to ATP and detect ATP with luciferase/luciferin. The plate was incubated for 30 minutes at room temperature in dark before reading luminescence on an Envision (PerkinElmer) reader.
IC50 values of compounds of the invention were determined by the non-linear regression analysis of dose response curves.

Chain of human recombinant TAK1-TAB1 Kinase (TAK1 (1-303) and TAB1 (437-end)) (O43318 other isoform, or with tags, fused parts or gaps): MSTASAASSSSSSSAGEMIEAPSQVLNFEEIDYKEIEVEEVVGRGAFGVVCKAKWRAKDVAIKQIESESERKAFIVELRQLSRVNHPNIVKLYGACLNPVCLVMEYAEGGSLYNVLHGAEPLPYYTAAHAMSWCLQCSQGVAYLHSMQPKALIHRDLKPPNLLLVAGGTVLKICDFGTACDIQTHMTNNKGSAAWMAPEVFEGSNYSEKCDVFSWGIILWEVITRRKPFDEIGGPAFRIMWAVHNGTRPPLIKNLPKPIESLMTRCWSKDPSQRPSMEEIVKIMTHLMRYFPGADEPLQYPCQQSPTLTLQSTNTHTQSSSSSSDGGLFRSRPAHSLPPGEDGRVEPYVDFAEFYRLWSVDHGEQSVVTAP

SMILES | IC50 [nM]
CC1CCCCNC(=O)c2cccc(c2)C(=O)Nc2nc3cccc(-c4ccc[nH]c4=O)c3n21 (single isomer, unassigned) [Example 36, (E)-11-methyl-1^7-(2-oxo-1,2-dihydropyridin-3-yl)-1^2,1^3-dihydro-1^1H-2,6-diaza-1(2,1)-benzo[d]imidazola-4(1,3)-benzenacycloundecaphane-3,5-dione] | 6
C[C@H]1CCCCNC(=O)c2cccc(c2)C(=O)Nc2nc3ccc(Cl)c(C(=O)N(C)C)c3n21 (single isomer, unassigned) [Example 53] | 258
CC1CCCCNC(=O)c2cccc(c2)C(=O)/N=C2\Nc3cccc(C4CCCNC4=O)c3N21 (single isomer, unassigned) [Example 60, (E)-11-methyl-1^7-(2-oxopiperidin-3-yl)-1^2,1^3-dihydro-1^1H-2,6-diaza-1(2,1)-benzo[d]imidazola-4(1,3)-benzenacycloundecaphane-3,5-dione] | 5
CC1CCCCNC(=O)c2cccc(c2)C(=O)/N=C2\Nc3cccc(-c4cc[nH]c(=O)c4)c3N21 (single isomer, unassigned) [Example 63, (E)-11-methyl-1^7-(2-oxo-1,2-dihydropyridin-4-yl)-1^2,1^3-dihydro-1^1H-2,6-diaza-1(2,1)-benzo[d]imidazola-4(1,3)-benzenacycloundecaphane-3,5-dione] | 8
CCC1CCCCNC(=O)c2cccc(c2)C(=O)Nc2nc3cccc(C(=O)N(C)C)c3n21 (single isomer, unassigned) [Example 67, (E)-11-ethyl-N,N-dimethyl-3,5-dioxo-1^2,1^3-dihydro-1^1H-2,6-diaza-1(2,1)-benzo[d]imidazola-4(1,3)-benzenacycloundecaphane-1^7-carboxamide] | 5

Other lines, results leading:

IC50 [nM] | SMILES
3 | CC1CCCCNC(=O)c2cccc(c2)C(=O)Nc2nc3cccc(C(=O)N(C)C)c3n21 (single isomer, unassigned) [Example 31, (E)-N,N,11-trimethyl-3,5-dioxo-1^2,1^3-dihydro-1^1H-2,6-diaza-1(2,1)-benzo[d]imidazola-4(1,3)-benzenacycloundecaphane-1^7-carboxamide]
5 | CC1CCCCNC(=O)c2cccc(c2)C(=O)Nc2nc3cccc(-c4ccc[nH]c4=O)c3n21 (single isomer, unassigned) [Example 35, (E)-11-methyl-1^7-(2-oxo-1,2-dihydropyridin-3-yl)-1^2,1^3-dihydro-1^1H-2,6-diaza-1(2,1)-benzo[d]imidazola-4(1,3)-benzenacycloundecaphane-3,5-dione]
4 | CC1CCCCNC(=O)c2cccc(c2)C(=O)/N=C2\Nc3cccc(C4CCCNC4=O)c3N21 (single isomer, unassigned) [Example 58, (E)-11-methyl-1^7-(2-oxopiperidin-3-yl)-1^2,1^3-dihydro-1^1H-2,6-diaza-1(2,1)-benzo[d]imidazola-4(1,3)-benzenacycloundecaphane-3,5-dione]
4 | CC1CCCCNC(=O)c2cccc(c2)C(=O)/N=C2\Nc3cccc(C4CCCNC4=O)c3N21 (single isomer, unassigned) [Example 59, (E)-11-methyl-1^7-(2-oxopiperidin-3-yl)-1^2,1^3-dihydro-1^1H-2,6-diaza-1(2,1)-benzo[d]imidazola-4(1,3)-benzenacycloundecaphane-3,5-dione]
4 | CC1CCCCNC(=O)c2cccc(c2)C(=O)/N=C2\Nc3cccc(C4CCCNC4=O)c3N21 (single isomer, unassigned) [Example 61, (E)-11-methyl-1^7-(2-oxopiperidin-3-yl)-1^2,1^3-dihydro-1^1H-2,6-diaza-1(2,1)-benzo[d]imidazola-4(1,3)-benzenacycloundecaphane-3,5-dione]
12 | CC1CCCCNC(=O)c2cccc(c2)C(=O)/N=C2\Nc3cccc(-c4cc[nH]c(=O)c4)c3N21 (single isomer, unassigned) [Example 62, (E)-11-methyl-1^7-(2-oxo-1,2-dihydropyridin-4-yl)-1^2,1^3-dihydro-1^1H-2,6-diaza-1(2,1)-benzo[d]imidazola-4(1,3)-benzenacycloundecaphane-3,5-dione]

same assay, conditions: 1 mM ATP, MBP substrate; read-out: TAK1 Mean IC50 (nM) @ 1 mM ATP

IC50 [nM] | SMILES
14 | CC1CCCCNC(=O)c2cccc(c2)C(=O)Nc2nc3cccc(C(=O)N(C)C)c3n21 (single isomer, unassigned) [Example 31, (E)-N,N,11-trimethyl-3,5-dioxo-1^2,1^3-dihydro-1^1H-2,6-diaza-1(2,1)-benzo[d]imidazola-4(1,3)-benzenacycloundecaphane-1^7-carboxamide]
